Experimental data as given in patent publication US7691966B2, “Method for quantitative analysis for prolyl hydroxylase activity using fluorescence polarization” (Korea Institute of Science and Technology, priority 2005, dated 2010).

Assays:
VBC protein [1] = molecular target: T1, VBC protein (Homo sapiens, UniProt P40337); test: Fluorescence polarization competition assay for inhibitors of F-HyP564 peptide-VBC protein binding; details: 100 nM F-HyP564, 500 nM VBC, competitor 0 to 500 μM
T1 construct: made in house; host or cells: E. coli BL21 (DE3)
Procedure: (§1) Fluorescence polarization changes were measured during the formation of protein-ligand complex of VBC protein and the above peptides prepared in Example 1, to investigate binding capacity and characteristics thereof. Fluorescence polarization was measured by using fluorometer (Perkin-Elmer), and the size of slit was 5 nm and integration time was 5 seconds. A buffer solution containing 50 mM Tris and 120 mM NaCl, pH 8.0, was supplemented with NP-40 (nonidet P40) by 0.5%, for being utilized for the experiments of binding and interaction.
Fluorescence polarization of the reaction solution was measured.
After mixing, fluorescence polarization changes were measured.

VBC protein [2] = molecular target: T1, VBC protein; test: Fluorescence polarization binding of fluorescent labeled HIF-1 peptide to VBC protein
From the text: Human von Hippel-Lindau gene fragment (corresponding to 54˜213 a.a. region of the amino acid sequence represented by GenBank Accession No: NM000551) and human Elongin B fragment (corresponding to 1˜118 a.a. region of the amino acid sequence represented by GenBank Accession No: NM007108) were inserted into a modified pGEX-4T-1, resulting in plasmid pGEX4T-VHL-EB. Likewise, human Elongin C fragment (corresponding to 17˜112 a.a. region of the amino acid sequence represented by GenBank Accession No: NM005648) was inserted into pET29b vector, resulting in plasmid PDEV-EC (Novagen). The plasmids were co-expressed massively in E. coli BL21 (DE3) (Novagen).
as §1
After mixing, fluorescence polarization was measured.

| Molecule | fluorescence polarization change on addition of competitor peptide (VBC protein [1]) | further results |
| --- | --- | --- |
| CC[C@H](C)[C@H](NC(=O)[C@H](Cc1ccc(O)cc1)NC(=O)[C@@H]1C[C@@H](O)CN1C(=O)[C@H](C)NC(=O)[C@H](CC(C)C)NC(=O)[C@H](C)N)C(=O)N1CCC[C@H]1C(=O)N[C@@H](C)C(=O)O [Hy-N fragment, ALAHyPYIPA] | remarkably decreased | – |
| ALAPYIPA [N] | only a slight decrease | – |
| CC[C@H](C)[C@H](NC(=O)[C@H](Cc1ccc(O)cc1)NC(=O)[C@@H]1C[C@@H](O)CN1C(=O)[C@H](C)NC(=O)[C@H](CC(C)C)NC(=O)[C@H](C)NC(=O)[C@H](CCC(=O)O)NC(=O)[C@H](CC(C)C)NC(=O)[C@H](CC(=O)O)NC(=O)[C@H](CC(C)C)NC(=O)[C@H](CC(=O)O)NC(=O)CCCCCNC(=S)Nc1ccc2c(c1)C(=O)OC21c2ccc(O)cc2Oc2cc(O)ccc21)C(=O)N1CCC[C@H]1C(=O)N[C@@H](C)C(=O)N[C@@H](CC(=O)O)C(=O)N[C@@H](CC(=O)O)C(=O)N[C@@H](CC(=O)O)C(=O)N[C@@H](Cc1ccccc1)C(=O)N[C@@H](CCC(N)=O)C(=O)N[C@@H](CC(C)C)C(=O)N[C@@H](CCCNC(=N)N)C(=O)O [F-HyP564] | – | fluorescence polarization of reactant with VBC protein compared with probe itself (VBC protein [2]; reacted with VBC protein at 25° C.): remarkably increased |
| F-P564: FITC-aminocaproic acid-labeled HIF-1α 556-575 peptide without hydroxyproline, SEQ ID NO:1 | – | fluorescence polarization value (VBC protein [2]; 100 nM peptide, 800 nM VBC protein, 25° C.): 0.066 |
| DDDFQLR [C] | only a slight decrease | – |
